# Data taken from US20210059959A1, “USE OF CANNABINOIDS IN THE TREATMENT OF MENTAL DISORDERS” (GW Pharma Limited, priority 2015, published 2021).
# Assays:
# [1] = test system: patients with bipolar affective disorder; details: two female patients, 30 days; one with olanzapine as adjunct, one CBD monotherapy; cited from earlier work
# rats treated with MK-801 = details: cited from earlier work
# [2] = test system: participants with schizophrenia or related psychotic disorder; assay: Brief Assessment of Cognition in Schizophrenia (BACS), double-blind placebo-controlled study of CBD as adjunctive therapy; type: in vivo, human; details: all patients
# Procedure: (§1) Example 1 below describes the use of a highly purified cannabis extract comprising cannabidiol (CBD) in a human clinical trial. Example 1 describes data produced in a double-blind, randomised, placebo-controlled, parallel group study of highly purified CBD as adjunctive therapy in first line treatment of schizophrenia or related psychotic disorder.
# (§2) An eight-week, multi-centre, double-blind, randomised, placebo-controlled, parallel group study was conducted with the aim to determine the efficacy, safety and tolerability of highly purified CBD as adjunctive therapy in first line treatment of schizophrenia or related psychotic disorder.
# (§3) This study evaluated the efficacy of highly purified CBD compared with placebo on the participant's PANSS Total score, ‘P’, ‘N’, ‘G’, SANS and BACS scores.
# (§4) Changes from baseline in PANSS scores (Total, ‘P’, ‘N’ and ‘G’), SANS and BACS were recorded at the start of the study (baseline) and at the end of treatment (after 6 weeks treatment with CBD or placebo).
# (§5) For inclusion in the study participants were required to be male or female aged 18 to 65 years, diagnosed with schizophrenia or a related psychotic disorder (such as schizoaffective or schizophreniform disorder) as defined by the Diagnostic and Statistical Manual of Mental Disorders Version 4. Participants must have been treated for a minimum of four-weeks and be on a stable dose of their current antipsychotic medication. […] A PANSS score in excess of 60 infers that the patient has symptoms related to schizophrenia or related disorders.
# (§6) The participants were randomised to one of two treatment groups which each consisted of 39 participants. Treatment was administered as either 5 ml CBD (100 mg/ml) oral solution to be taken twice daily or 5 ml matched placebo oral solution to be taken twice daily.
# Brief Assessment of Cognition in Schizophrenia (BACS)
# The BACS is an instrument used to assess the aspects of cognition found to be most impaired and most strongly correlated with outcome in participants with schizophrenia or related psychotic disorder. The BACS yields a high completion rate in participants with schizophrenia or related psychotic disorder.
# The BACS consists of six domains: verbal memory; working memory; motor speed; verbal fluency; attention and speed information processing and executive functions. A score is obtained for each domain and a composite summary score is also calculated as the average of the scores from the six domains. An increase in score is indicative of an improvement in cognition.
# This instrument was assessed at each assessment visit (Visits 1-4).
# [3] = test system: participants with schizophrenia or related psychotic disorder; assay: Positive and Negative Syndrome Scale (PANSS), double-blind placebo-controlled study of CBD as adjunctive therapy; type: in vivo, human
# Procedure: as §1, §2, §3, §4, §5, §6
# Positive and Negative Syndrome Scale (PANSS)
# The PANSS is a medical scale completed by a trained rater and is used for measuring symptom severity of participants with schizophrenia or related psychotic disorder. The name refers to the two types of symptoms in schizophrenia, as defined by the American Psychiatric Association: positive symptoms, which refer to an excess or distortion of normal functions (e.g. hallucinations and delusions), and negative symptoms, which represent a diminution or loss of normal functions.
# It is a 30 item rating instrument that assesses the positive and negative symptoms of schizophrenia as well as symptoms of general psychopathology. A PANSS Total score is derived from the sum of the 30 items and the PANSS items are also grouped into three subscales: Positive (‘P’), Negative (‘N’), and General (‘G’). Individual items are rated on a seven point scale, where 1=absent and 7=extreme. This scale was measured at each assessment visit (Visit 1-4).
# The minimum score PANSS scoring system is 30 and patients with a score of higher than 60 are considered to still be suffering psychotic symptoms.
# PANSS ‘P’ scale measures the severity of: • i) Delusions • ii) Conceptual disorganisation • iii) Hallucinations • iv) […] • v) Grandiosity • vi) Suspiciousness/persecution • vii) Hostility
# PANSS ‘N’ scale measures the severity of: • i) Blunted affect • ii) Emotional withdrawal • iii) Poor rapport • iv) Passive/apathetic social withdrawal • v) Difficulty in abstract thinking • vi) Lack of spontaneity and flow of conversation • vii) Stereotyped thinking
# PANSS ‘G’ psychopathology scale measures the severity of: • i) Somatic concern • ii) Anxiety • iii) Guilt feelings • iv) Tension • v) Mannerisms and posturing • vi) Depression • vii) Motor retardation • viii) Uncooperativeness • ix) Unusual thought content • x) Disorientation • xi) Poor attention • xii) Lack of judgment and insight • xiii) Disturbance of volition • xiv) Poor impulse control • xv) Preoccupation • xvi) Active social avoidance
# [4] = CBD adjunct, 6 weeks, all patients
# [5] = CBD adjunct, 6 weeks, patients on amisulpride
# [6] = CBD adjunct, 6 weeks, patients on aripiprazole
# [7] = CBD adjunct, 6 weeks, patients on olanzapine
# [8] = CBD adjunct, 6 weeks, patients on other antipsychotics
# [9] = CBD adjunct, 6 weeks, patients on quetiapine
# [10] = CBD adjunct, 6 weeks, patients on risperidone
structure (smiles),measurement,setting,value
"C=C(C)[C@@H]1CCC(C)=C[C@H]1c1c(O)cc(CCCCC)cc1O [CBD, Cannabidiol]",Efficacy in bipolar affective disorder,[1],ineffective
same,Effect on social deficits,rats treated with MK-801,reverse social deficits
same,"Change in baseline scores, BACS composite score","[2]; CBD adjunct, 6 weeks",3.5
same,"Change in baseline scores, BACS sub-domain 1 Verbal memory","[2]; CBD adjunct, 6 weeks",2.1
same,"Change in baseline scores, BACS sub-domain 2 Working memory","[2]; CBD adjunct, 6 weeks",1.8
same,"Change in baseline scores, BACS sub-domain 3 Motor speed","[2]; CBD adjunct, 6 weeks",6.2
same,"Change in baseline scores, BACS sub-domain 4 Verbal fluency","[2]; CBD adjunct, 6 weeks",4.3
same,"Change in baseline scores, BACS sub-domain 5 Attention and speed information processing","[2]; CBD adjunct, 6 weeks",4.4
same,"Change in baseline scores, BACS sub-domain 6 Executive function","[2]; CBD adjunct, 6 weeks",2.0
same,"Change in baseline scores, BACS sub-domain 3 Motor speed: difference","[2]; CBD vs placebo, P = 0.0439",(4.2)
same,"Change in baseline scores, BACS composite score: difference","[2]; CBD vs placebo, P = 0.0677",(1.3)
same,"Change in baseline scores, BACS sub-domain 6 Executive function: difference","[2]; CBD vs placebo, P = 0.0682",(1.4)
same,"Change in baseline scores, BACS sub-domain 2 Working memory: difference","[2]; CBD vs placebo, P = 0.1414",(1.0)
same,"Change in baseline scores, BACS sub-domain 5 Attention and speed information processing: difference","[2]; CBD vs placebo, P = 0.5915",(0.9)
same,"Change in baseline scores, BACS sub-domain 4 Verbal fluency: difference","[2]; CBD vs placebo, P = 0.8059",(0.4)
same,"Change in baseline scores, BACS sub-domain 1 Verbal memory: difference","[2]; CBD vs placebo, P = 0.9933",(0.1)
same,"Change in baseline scores, PANSS total score",[3]; [4],−11.4
same,"Change in baseline scores, PANSS ‘G’ score",[3]; [4],−5.3
same,"Change in baseline scores, PANSS ‘N’ score",[3]; [4],−3.1
same,"Change in baseline scores, PANSS ‘P’ score",[3]; [4],−3.1
same,"Change in baseline scores, PANSS total",[3]; [5],−11.3
same,"Change in baseline scores, PANSS ‘P’ score",[3]; [5],−4.0
same,"Change in baseline scores, PANSS total",[3]; [6],−12.3
same,"Change in baseline scores, PANSS ‘P’ score",[3]; [6],−3.8
same,"Change in baseline scores, PANSS total",[3]; [7],−17.5
same,"Change in baseline scores, PANSS ‘P’ score",[3]; [7],−3.9
same,"Change in baseline scores, PANSS total",[3]; [8],−10.3
same,"Change in baseline scores, PANSS ‘P’ score",[3]; [8],−1.4
same,"Change in baseline scores, PANSS total",[3]; [9],−7.5
same,"Change in baseline scores, PANSS ‘P’ score",[3]; [9],−1.7
same,"Change in baseline scores, PANSS total",[3]; [10],−7.8
same,"Change in baseline scores, PANSS ‘P’ score",[3]; [10],−2.6
same,"Responder status for change in baseline scores, PANSS ‘P’ score","[3]; CBD adjunct, patients with >= 20% change from baseline, P = 0.0679 vs placebo",42.9%
same,"Responder status for change in baseline scores, PANSS total score","[3]; CBD adjunct, patients with >= 20% change from baseline, P = 0.0896 vs placebo",28.6%
same,"Responder status for change in baseline scores, PANSS ‘G’ score","[3]; CBD adjunct, patients with >= 20% change from baseline, P = 0.2598 vs placebo",28.6%
same,"Responder status for change in baseline scores, PANSS ‘N’ score","[3]; CBD adjunct, patients with >= 20% change from baseline, P = 0.7951 vs placebo",26.2%
same,"Change in baseline scores, PANSS ‘P’ score: difference","[3]; CBD vs placebo, all patients, P = 0.0188",(−1.4)
same,"Change in baseline scores, PANSS total score: difference","[3]; CBD vs placebo, all patients, P = 0.1332",(−2.8)
same,"Change in baseline scores, PANSS ‘G’ score: difference","[3]; CBD vs placebo, all patients, P = 0.1963",(−1.3)
same,"Change in baseline scores, PANSS ‘N’ score: difference","[3]; CBD vs placebo, all patients, P = 0.8841",(−0.1)
same,"Change in baseline scores, PANSS total: difference","[3]; CBD vs placebo, patients on amisulpride, P = 0.5543",(7.9)
same,"Change in baseline scores, PANSS ‘P’ score: difference","[3]; CBD vs placebo, patients on amisulpride, P = 0.8241",(−0.5)
same,"Change in baseline scores, PANSS ‘P’ score: difference","[3]; CBD vs placebo, patients on aripiprazole, P = 0.0345",(−3.1)
same,"Change in baseline scores, PANSS total: difference","[3]; CBD vs placebo, patients on aripiprazole, P = 0.1220",(−6.2)
same,"Change in baseline scores, PANSS total: difference","[3]; CBD vs placebo, patients on olanzapine, P = 0.0067",(−10.7)
same,"Change in baseline scores, PANSS ‘P’ score: difference","[3]; CBD vs placebo, patients on olanzapine, P = 0.1434",(−1.5)
same,"Change in baseline scores, PANSS total: difference","[3]; CBD vs placebo, patients on other antipsychotics, P = 0.2746",(−10.6)
same,"Change in baseline scores, PANSS ‘P’ score: difference","[3]; CBD vs placebo, patients on other antipsychotics, P = 0.9550",(−0.2)
same,"Change in baseline scores, PANSS total: difference","[3]; CBD vs placebo, patients on quetiapine, P = 0.6640",(5.1)
same,"Change in baseline scores, PANSS ‘P’ score: difference","[3]; CBD vs placebo, patients on quetiapine, P = 0.7905",(0.6)
same,"Change in baseline scores, PANSS ‘P’ score: difference","[3]; CBD vs placebo, patients on risperidone, P = 0.4625",(−0.8)
same,"Change in baseline scores, PANSS total: difference","[3]; CBD vs placebo, patients on risperidone, P = 0.6470",(1.8)
